Earlier results, collected in US6994864B2, “Composition containing 7-hydroxy DHEA and/or 7-keto DHEA and at least a carotenoid” (L'Oreal, priority 2000, dated 2006).

Assays:
skin of rats = details: on rats

C[C@]12CC[C@H](O)CC1=C[C@@H](O)[C@@H]1[C@@H]2CC[C@]2(C)C(=O)CC[C@@H]12 [7α-hydroxy-DHEA]
proliferation of the fibroblasts (fibroblasts): increase | elastin and collagen content of the skin (skin of rats): increased | thickness of the dermis (skin of rats): increased | viability of the human keratinocytes (human keratinocytes): increase
